{"source": "patent EP0023103A1", "about": "“Antifungal imidazole derivatives, process for their preparation and pharmaceutical compositions thereof” (Pfizer Limited, priority 1979, dated 1981)", "data": [{"system": "Candida albicans", "experiment": "In vitro anti-fungal activity: minimum inhibitory concentration (m.i.c.) on agar plates", "format": "cell-based", "conditions": "geometrical mean of results against a panel of 12 strains of Candida albicans; agar plates incubated for 48 hours at 37°C", "values": [{"smiles": "C=CC(C)C(O)(Cn1ccnc1)c1ccc(Cl)cc1Cl", "note": "(single isomer, unassigned) [Example 3b, 2-(2,4-Dichlorophenyl)-1-(1-imidazolyl)-3-methyl-pent-4-en-2-ol]", "Mean m.i.c.": 11.0}, {"smiles": "OC(CC1CC1)(Cn1ccnc1)c1ccc(Cl)cc1Cl", "note": "(stereo not shown) [Example 15]", "Mean m.i.c.": 6.3}, {"smiles": "CC(C)(C)C(O)(Cn1ccnc1)c1ccc(Cl)cc1Cl", "note": "(stereo not shown) [Example 7]", "Mean m.i.c.": 11.0}, {"smiles": "CC(C)CC(O)(Cn1ccnc1)c1ccc(Cl)cc1Cl", "note": "(stereo not shown) [Example 16]", "Mean m.i.c.": 5.6}, {"smiles": "CCCCCCCC(O)(Cn1ccnc1)c1ccc(Cl)cc1Cl", "note": "(stereo not shown) [Example 19]", "Mean m.i.c.": 5.6}, {"smiles": "CCCCCC(O)(Cn1ccnc1)c1ccc(Cl)cc1Cl", "note": "(stereo not shown) [Example 9]", "Mean m.i.c.": 5.2}, {"smiles": "CCCCC(O)(Cn1ccnc1)c1ccc(Cl)cc1Cl", "note": "(stereo not shown) [Example 6]", "Mean m.i.c.": 3.8}, {"smiles": "C=CCC(O)(Cn1ccnc1)c1ccc(Cl)cc1Cl", "note": "(stereo not shown) [Example 1, 2-(2,4-Dichlorophenyl)-1-(1-imidazolyl)-pent-4-en-2-ol]", "Mean m.i.c.": 22.0}, {"smiles": "C=CC(C)C(O)(Cn1ccnc1)c1ccc(Cl)cc1Cl", "note": "(single isomer, unassigned) [Example 3a, 2-(2,4-Dichlorophenyl)-1-(1-imidazolyl)-3-methyl-pent-4-en-2-ol]", "Mean m.i.c.": 18.0}, {"smiles": "CCC(C)C(O)(Cn1ccnc1)c1ccc(Cl)cc1Cl", "note": "(stereo not shown) [Example 4, 2-(2,4-Dichlorophenyl)-1-(1-imidazolyl)-3-methyl-pentan-2-ol]", "Mean m.i.c.": 12.0}, {"smiles": "CCCC(O)(Cn1ccnc1)c1ccc(Cl)cc1Cl", "note": "(stereo not shown) [Example 2, 2-(2,4-Dichlorophenyl)-1-(1-imidazolyl)-pentan-2-ol]", "Mean m.i.c.": 12.5}, {"smiles": "CCCCC(O)(Cn1ccnc1)c1ccccc1Cl", "note": "(stereo not shown) [Example 21, 2-(2-Chlorophenyl)-1-(1-imidazolyl)-hexan-2-ol]", "Mean m.i.c.": 18.0}, {"smiles": "C=CCCCC(O)(Cn1ccnc1)c1ccc(Cl)cc1Cl", "note": "(stereo not shown) [Example 17]", "Mean m.i.c.": 8.4}, {"smiles": "CCC(O)(Cn1ccnc1)c1ccc(Cl)cc1Cl", "note": "(stereo not shown) [Example 5, 2-(2,4-dichlorophenyl)-1-(1-imidazolyl)-butan-2-ol]", "Mean m.i.c.": 21.0}, {"smiles": "C=CCCC(O)(Cn1ccnc1)c1ccc(Cl)cc1Cl", "note": "(stereo not shown) [Example 11]", "Mean m.i.c.": 6.8}, {"smiles": "CC(C)C(O)(Cn1ccnc1)c1ccc(Cl)cc1Cl", "note": "(stereo not shown) [Example 8]", "Mean m.i.c.": 21.0}, {"smiles": "CC(C)CCC(O)(Cn1ccnc1)c1ccc(Cl)cc1Cl", "note": "(stereo not shown) [Example 18]", "Mean m.i.c.": 3.8}, {"smiles": "CCCCC(O)(Cn1ccnc1)c1ccc(Cl)cc1", "note": "(stereo not shown) [Example 20, 2-(4-Chlorophenyl)-1-(1-imidazolyl)-hexan-2-ol]", "Mean m.i.c.": 38.0}, {"smiles": "CCCCCCC(O)(Cn1ccnc1)c1ccc(Cl)cc1Cl", "note": "(stereo not shown) [Example 10, 2-(2,4-dichlorophenyl)-1-(1-imidazolyl)-octan-2-ol]", "Mean m.i.c.": 3.1}]}]}
